Legend:
[1] = test system: IMQ-induced psoriasis mouse model; assay: IMQ-induced psoriasis mouse model; format: in vivo, C57BL/6 male mouse; conditions: 0.05% Clobetasol propionate, 62.5 mg/animal, topical daily; Vehicle 10.50±0.47
Text: An IMQ-induced psoriasis mouse model was created by applying Aldara™ (imiquimod, IMQ) cream to the back skin of an 8-week-old C57BL/6 male mouse a total of 7 times from Day 0 to Day 6. With respect to a normal group in which IMQ cream was not applied (Normal group), as negative control groups, a group in which no additional substances were applied in the process of inducing psoriasis (No Treatment group) and a group in which excipients were applied to the skin (Vehicle group), and as a positive control group, a group in which the previously-approved drug Betabate was applied (Clobetasol propionate group, 0.05% Clobetasol propionate, 62.5 mg/animal), the test substance Brixelle (30 mg/kg) was applied to the skin every day from Day 0, thus to evaluate its effectiveness. Clinical symptoms were evaluated during the process of inducing psoriasis, and skin tissues were secured after the survival test was completed for further analysis.
To quantify the clinical symptoms of psoriasis, for three (3) clinical index items including 1) erythema (redness), 2) scaling and 3) skin thickness, a clinical score was measured on a scale out of 4 (modified psoriasis area and severity index, PASI). […] The results of the graph were expressed as mean±SEM. […]

[2] = test system: DNFB-induced contact dermatitis mouse model; assay: DNFB-induced contact dermatitis mouse model; format: in vivo, C57BL/6 NC/Nga male mice; conditions: 0.1% Dexamethasone, 62.5 mg/animal, topical daily; Vehicle 0.94±0.01
Text: A DNFB-induced contact dermatitis mouse model was created using 6 to 10-week-old C57BL/6 NC/Nga male mice and Mouse 2, 4 Dinitrofluorobenzene (DNFB). On Days 0 and 1, 0.5% DNFB solution (acetone:olive oil=4:1) was applied to the back skin to sensitize them, and then on Day 7, 0.3% DNFB solution was applied to the ear skin to induce contact dermatitis. With respect to a normal group in which the DNFB solution was not applied (Normal group), as negative control groups, a group in which no additional substances were applied in the process of inducing contact dermatitis (No Treatment group) and a group in which excipients were applied to the skin (Vehicle group), and as a positive control group, a group in which the previously-approved drug Maxidex was applied (Dexamethasone group, 0.1% Dexamethasone, 62.5 mg/animal), the test substance Brixelle (30 mg/kg) was applied to the skin every day from Day 0, thus to evaluate its effectiveness. Clinical symptoms were evaluated during the process of inducing contact dermatitis, and skin tissues were secured after the survival test was completed for further analysis.
Ear thickness was measured to evaluate edema, a clinical symptom of contact dermatitis. […] The results of the graph were expressed as mean±SEM. […]

[3] = test system: HDM-induced atopic dermatitis mouse model; assay: HDM-induced atopic dermatitis mouse model (2), comparison with approved drugs; format: in vivo, NC/Nga female mice; conditions: 0.1% Dexamethasone, 62.5 mg/animal
Protocol: (§1) An HDM-induced atopic dermatitis mouse model was created by applying HDM antigen ointment to the back and ear skin of 6 to 10-week-old NC/Nga female mice a total of 7 times on Days 0, 7, 10, 14, 17, 21 and 24. […] Clinical symptoms were evaluated during the process of inducing atopic dermatitis, and skin tissues were secured after the survival test was completed for further analysis.
(§2) To quantify the clinical symptoms of atopic dermatitis, for four (4) clinical index items including 1) erythema/hemorrhage, 2) scarring/dryness, 3) edema and 4) excoriation/maceration (erosion), a clinical score was measured on a Likert scale out of 3. H&E staining was performed to observe histological changes in the skin for atopic dermatitis, while dihydroethidium (DHE) staining was performed to measure ROS in skin tissues. Further, in order to identify the mast cells and eosinophils infiltrated in the skin tissues, Toluidine blue staining and Congo red staining were performed, respectively. To measure IL-4 and IL-13, which are inflammatory mediators known to be highly related to atopic dermatitis, ELISA was performed on the skin tissues. The results of the graph were expressed as mean±SEM. The statistical analysis was performed using the GraphPad program to confirm statistical significance with the Vehicle group through one-way ANOVA, followed by Dunnett's multiple comparison method (*p<0.05, **p<0.01, ***p<0.001, ****p<0.0001).

[4] = test system: HDM-induced atopic dermatitis mouse model; assay: HDM-induced atopic dermatitis mouse model (1), dose dependence; format: in vivo, NC/Nga female mice; conditions: 0.1% Dexamethasone, 62.5 mg/animal
Protocol: as §1
as §2, with “respectively.” for “respectively. To measure IL-4 and IL-13, which are inflammatory mediators known to be highly related to atopic dermatitis, ELISA was performed on the skin tissues.”

Compound | clinical score (modified PASI) [1] | thickness of the ear skin [2] | clinical score (atopic dermatitis) ([3]; topical daily from Day 7, Vehicle 9.58±0.64) | eosinophil infiltration (Congo red staining) ([3]; Vehicle 40.06±5.95) | mast cell infiltration (Toluidine blue staining) ([3]; Vehicle 56.81±1.99) | clinical score (atopic dermatitis) ([4]; topical daily from Day 7, Vehicle 9.44±0.77, mean±SEM) | eosinophil infiltration (Congo red staining) ([4]; Vehicle 35.50±1.37) | mast cell infiltration (Toluidine blue staining) ([4]; Vehicle 52.69±2.19)
CCC(=O)O[C@]1(C(=O)CCl)[C@@H](C)C[C@H]2[C@@H]3CCC4=CC(=O)C=C[C@]4(C)[C@@]3(F)[C@@H](O)C[C@@]21C [Clobetasol propionate] | 7.25±0.21 | – | – | – | – | – | – | –
C[C@@H]1C[C@H]2[C@@H]3CCC4=CC(=O)C=C[C@]4(C)[C@@]3(F)[C@@H](O)C[C@]2(C)[C@@]1(O)C(=O)CO [Dexamethasone] | – | 0.67±0.02 | 3.75±0.99 | 10.25±2.56 | 20.69±5.25 | 4.90±0.76 | 18.88±1.64 | 27.38±3.19
